Source: the SangsterLogP compilation

Experiment: method code SF-HPLC, from DOI: 10.1021/jf960844v

logP | Compound
3.73 | C=C(Br)CON=C(C)c1cccc(Oc2nc(OC)cc(OC)n2)c1C(=O)OC
4.01 | COC(=O)c1c(Oc2nc(OC)cc(OC)n2)cccc1C(C)=NOCc1ccccc1
3.63 | C=C(Cl)CON=C(C)c1cccc(Oc2nc(OC)cc(OC)n2)c1C(=O)OC
4.11 | CCCCON=C(C)c1cccc(Oc2nc(OC)cc(OC)n2)c1C(=O)OC
1.68 | COC(=O)c1c(Oc2nc(OC)cc(OC)n2)cccc1C(C)=NOC(C)=O
3.23 | COC(=O)c1c(Oc2nc(OC)cc(OC)n2)cccc1/C(C)=N/OCCCl
4.23 | COC(=O)c1c(Oc2nc(OC)cc(OC)n2)cccc1C(C)=NOCC=C(Cl)Cl
2.31 | COC(=O)c1c(Oc2nc(OC)cc(OC)n2)cccc1C(C)=NOCCF
3.59 | CCCO/N=C(\C)c1cccc(Oc2nc(OC)cc(OC)n2)c1C(=O)OC
3.13 | C=CCO/N=C(\C)c1cccc(Oc2nc(OC)cc(OC)n2)c1C(=O)OC
3.39 | COC(=O)c1c(Oc2nc(OC)cc(OC)n2)cccc1C(C)=NOCC(F)(F)F
1.93 | COC(=O)c1c(Oc2nc(OC)cc(OC)n2)cccc1C(C)=NO
2.96 | CCO/N=C(\C)c1cccc(Oc2nc(OC)cc(OC)n2)c1C(=O)OC

Compound | logP
CO/N=C(\C)c1cccc(Oc2nc(OC)cc(OC)n2)c1C(=O)OC | 2.57
